# From PubChem BioAssay AID179 (DTP/NCI, 2004)
# Calls of active or inactive are those of the source.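 How the source made its calls: active means compounds giving half or more protection of infected cells from virus-caused growth loss, again on retest; inactive means the rest.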
# Tested on: CEM cells HIV-1 protection, formazan growth assay
# Test: NCI AIDS Antiviral Assay
# Details: for IC50: measured here: growth of uninfected CEM cells
# How it was run: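 Human CEM cells, uninfected and HIV-1-infected, exposed to five drug concentrations; growth measured by soluble formazan assay and scored as percent protection from infection, with protecting compounds retested.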
Compound,EC50 [µM],IC50 [µM],outcome
COc1ccc2ccccc2c1-c1cccc2ccccc12,> 200,32.4,
Cc1cc(N(CCC#N)CCC#N)ccc1N=Nc1ccc(C(=O)O)cc1,> 100,> 100,
O=S1(=O)CSc2ccc3ccccc3c2-c2c1ccc1ccccc21,> 27.5,> 27.5,
Cc1nn(-c2ccccc2)c2c1CC(=O)Nc1ccccc1-2,> 2,0.112,
O=C(COc1ccc(OCC(=O)N2C(=O)CC(=O)N(c3ccccc3)C2=S)cc1)N1C(=O)CC(=O)N(c2ccccc2)C1=S,> 141,75.9,
O=C(O)c1ccc(CS(=O)c2ccccc2C(=O)O)c([N+](=O)[O-])c1 (centres undefined),> 708,> 708,
CCc1cccc(C)c1NC(=O)CC1Sc2ccccc2NC1=O (centres undefined),> 28.8,17.8,
O=C1OCC/C1=C\c1ccc(O)cc1,> 1320,240,
O=[N+]([O-])c1ccc(-c2noc(-c3ccccc3)c2C2=NCCN2)cc1,> 15.5,> 15.5,
CC(CSC(=N)N)C(N)=O (centres undefined),> 200,> 200,
C1CCN(c2nsc(N3CCCCC3)n2)CC1,,,inactive
Cn1c2ccccc2c2oc(CO)cc(=O)c21,> 200,126,
COc1ccc(-n2c(C)nc3ccc(N=Cc4ccccc4)cc3c2=O)cc1,> 200,> 200,
COc1ccc(-c2c(C)oc3cc(OC(C)=O)ccc3c2=O)cc1,> 200,30.9,
CCN(CC)CC1CCCCN1CC(=O)N1c2ccc(Br)cc2C(=O)Nc2cccnc21 (centres undefined),> 200,> 200,
CC(=O)OCC1OC(n2cc(I)c(=O)[nH]c2=O)C(OC(C)=O)C(OC(C)=O)C1OC(C)=O (centres undefined),> 437,282,
CC1=C(C(=O)Nc2ccccc2)C(c2ccc([N+](=O)[O-])cc2)C(C(=O)Nc2ccccc2)=C(C)N1,> 15.5,> 15.5,
NNC(=O)/C(NC(=O)c1ccccc1)=C(\N)c1cccc([N+](=O)[O-])c1,> 15.1,> 15.1,
NC(=S)NN/C=C(\C=Nc1ccccc1)[N+](=O)[O-],> 355,178,
CC(C)(CNC(=O)/C(Cl)=C(/Cl)C(=O)O)CNC(=O)/C(Cl)=C(/Cl)C(=O)O,> 200,17,
O=C1C(=O)c2ccccc2C(O)=C1CC=C(Cl)Cl,> 126,0.955,

Compound,EC50 [µM],IC50 [µM],outcome
O=[N+]([O-])/C(C(Cl)=C(Cl)Cl)=C(/Cl)Sc1ccccc1,> 200,1.23,
CC1S(=O)(=O)OCCCOS1(=O)=O,> 1070,> 1070,
Cc1cn(C2CC(OC3CCCCO3)C(CO)O2)c(=O)[nH]c1=O (centres undefined),> 200,> 200,
COc1cccc2cc(C)c(C(=O)c3ccccc3)nc12,> 64.6,> 64.6,
CCOC(=O)c1cc(C)nc2c1c(=O)n(-c1ccccc1)c(=O)n2CCCCN1CCN(c2ncccn2)CC1,> 200,107,
Cn1c(=O)[nH]c(N2CCOCC2)c(C#N)c1=S,> 200,> 200,
Cc1noc(NC2=CC(=O)C(=O)c3ccccc32)c1C,> 200,3.98,
CCOC(=O)CC1(Cc2ccc(OCc3ccccc3)cc2)C(=O)OC(c2ccccc2)N1C(=O)c1ccccc1 (centres undefined),> 200,> 200,
CC1NC(=O)C2=C1C(N)=NC(=O)C2 (centres undefined),> 1000,> 1000,
CC(=O)OCC1OC(n2ccc(=O)[nH]c2=O)C(OC(C)=O)C(OC(C)=O)C1OC(C)=O (centres undefined),> 562,> 562,
O=C1/C(=C/c2ccccc2)CN(C(=O)Oc2ccc([N+](=O)[O-])cc2)C/C1=C\c1ccccc1,,,inactive
CCCCCCCC(=O)N1C2CC3CCC2(CS1(=O)=O)C3(C)C (centres undefined),> 200,19.1,
C=C1CC[C@@H]2C(C)(C)C(O)CCC2(C)C1COc1ccc2ccc(=O)oc2c1 (some centres undefined),> 67.6,36.3,
Cc1cc(C#N)c(Nc2c(C)cccc2[N+](=O)[O-])s1,> 200,158,
COC(=O)C1C(C(=O)OC)C1(Br)CBr (centres undefined),> 200,5.89,
CCOc1ccccc1N1C(=O)C(=O)C(c2nc3ccccc3s2)C(=O)C1=O,> 18.2,> 18.2,
Cc1ccc(O)c(C(=O)CCCC(=O)c2cc(C)ccc2O)c1,> 12,> 12,
CC(=O)NNc1nc(C)c(C(=O)NNC(=O)C(=O)Nc2ccc(Cl)cc2Cl)s1,,,inactive
Nc1nc(Cl)cc(NCC2(CO)CC(CCc3ccccc3)C2)n1 (centres undefined),> 20,14.8,
CCOC(=O)/C(=C\c1ccoc1)P(=O)(OCC)OCC,> 832,30.9,
CCOc1ccc(C2=C(Cl)c3cc(OC)c(OC)cc3C2Cl)cc1 (centres undefined),,,inactive

Compound,EC50 [µM],IC50 [µM],outcome
COc1ccccc1/C=C1\SC(=S)NC1=O,> 200,107,
CCCCCCCCCCCC[N+](CCCCCCCCCCCC)=C1SCCS1,,,inactive
Cc1ccc(C(N)=O)cc1N=NN(C)C,> 457,269,
COc1cc(C2c3cc4c(cc3OC3(O)COC(=O)C23)OCO4)cc(OC)c1OC (centres undefined),> 200,105,
C=CCCCC(C#N)(c1ccccc1)N(C)C (centres undefined),,,inactive
CCn1c(=O)c2c(=O)[nH][nH]c2c2ccccc21,> 200,> 200,
C=CCn1c(-c2ccc([N+](=O)[O-])cc2)cs/c1=N\C(P(=O)(O)O)P(=O)(O)O,> 200,> 200,
COc1ccc(C(CC(=O)O)CC(=O)O)cc1[N+](=O)[O-],> 200,> 200,
COC1/C=C/O[C@@]2(C)Oc3c(C)c(O)c4c(O)c(cc(O)c4c3C2=O)NC(=O)/C(C)=C\C=C\[C@H](C)C(O)[C@@H](C)[C@@H](O)[C@@H](C)[C@H](OC(C)=O)[C@@H]1C (some centres undefined),> 174,8.13,
COC(=O)[C@H]1[C@H](OC(=O)[C@@H](OC)c2ccccc2)ON2CC[C@@H](OC(=O)c3ccccc3)[C@H]12,> 200,178,
CCCCCn1c(=O)c2c(=O)[nH][nH]c2c2ccccc21,> 200,> 200,
CC(C)CC(NC(=O)C(O)C(N)Cc1ccccc1)C(=O)O (centres undefined),> 17,> 17,
CCOC(OCC)c1ccc(C(F)(F)F)cc1.[C-]#[O+].[C-]#[O+].[C-]#[O+].[Cr],> 20,3.02,
COC(=O)c1cc(=O)c2scc(C)[n+]2[nH]1,> 955,> 955,
O=c1[nH]nc(Cc2ccccc2)n1/N=C\CC/C=N\n1c(Cc2ccccc2)n[nH]c1=O,> 200,37.2,
O=C1c2ccccc2C(=O)C1c1ccc2c(ccc3ccccc32)n1,,,inactive
COc1c(Cl)cc(C(=CCC(=O)N[C@@H]2CC[C@@]3(C)[C@@H](CC[C@@H]4[C@@H]3CC[C@]3(C)[C@@H]([C@H](C)CCCC(C)C)CC[C@@H]43)C2)c2cc(Cl)c(OC)c(C(=O)O)c2)cc1C(=O)O,> 200,10.2,
c1ccc2sc(NCCSSCCNc3nc4ccccc4s3)nc2c1,> 200,23.4,
FC(F)(Sc1ncccn1)c1nc(-c2ccccc2)no1,> 200,53.7,
COc1ccc(C2C3=C(COC3=O)OC(C)(C)Oc3cc4c(cc32)OCO4)cc1 (centres undefined),> 200,13.8,
Cc1cc2c(cc1C)NC(=O)C(NC(=O)c1ccc(Cl)cc1)C=N2 (centres undefined),> 200,> 200,
